According to PubChem BioAssay AID1963966 (Molecular Pharmacology Branch, DTP, NCI, 2024):

Test system: 935938-334-R-J1-PDC spheroids with HUVEC/MSC, viability
Experiment: Anticancer human tumor 935938-334-R-J1-PDC patient-derived small intestine adenocarcinoma cell line growth inhibition [PI3K]
Conditions: for IC50: curve of first compound; for viability, T/C: stronger effect = lower value
Outline: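 Complex 3D spheroids (cancer cells + endothelial HUVEC + mesenchymal stem cells); drug pairs of targeted agent x inavolisib/alpelisib/duvelisib/copanlisib; half-log series from ~Cmax, max 10 microM if Cmax unknown; endpoint viability.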

[1] = second compound 0.0316 µM, first compound 0.0316 µM
[2] = second compound 0.0316 µM, first compound 0.1 µM
[3] = second compound 0.0316 µM, first compound 0.316 µM
[4] = second compound 0.0316 µM, first compound 1 µM
[5] = second compound 0.0316 µM, first compound 3.16 µM
[6] = second compound 0.0316 µM, first compound 10 µM
[7] = second compound 0.1 µM, first compound 0.0316 µM
[8] = second compound 0.1 µM, first compound 0.1 µM
[9] = second compound 0.1 µM, first compound 0.316 µM
[10] = second compound 0.1 µM, first compound 1 µM
[11] = second compound 0.1 µM, first compound 3.16 µM
[12] = second compound 0.1 µM, first compound 10 µM
[13] = second compound 0.316 µM, first compound 0.0316 µM
[14] = second compound 0.316 µM, first compound 0.1 µM
[15] = second compound 0.316 µM, first compound 0.316 µM
[16] = second compound 0.316 µM, first compound 1 µM
[17] = second compound 0.316 µM, first compound 3.16 µM
[18] = second compound 0.316 µM, first compound 10 µM
[19] = second compound 1 µM, first compound 0.0316 µM
[20] = second compound 1 µM, first compound 0.1 µM
[21] = second compound 1 µM, first compound 0.316 µM
[22] = second compound 1 µM, first compound 1 µM
[23] = second compound 1 µM, first compound 3.16 µM
[24] = second compound 1 µM, first compound 10 µM
[25] = second compound 3.16 µM, first compound 0.0316 µM
[26] = second compound 3.16 µM, first compound 0.1 µM
[27] = second compound 3.16 µM, first compound 0.316 µM
[28] = second compound 3.16 µM, first compound 1 µM
[29] = second compound 3.16 µM, first compound 3.16 µM
[30] = second compound 3.16 µM, first compound 10 µM
[31] = second compound 10 µM, first compound 0.0316 µM
[32] = second compound 10 µM, first compound 0.1 µM
[33] = second compound 10 µM, first compound 0.316 µM
[34] = second compound 10 µM, first compound 1 µM
[35] = second compound 10 µM, first compound 3.16 µM
[36] = second compound 10 µM, first compound 10 µM
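Further: compound exposure lasted seven days before viability was read.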
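Wherever viability, T/C is given: percent of vehicle DMSO treated spheroid viability so 100% = untreated.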

Work on Cn1ncc(Cl)c1-c1cc(C(=O)NC(CN)Cc2cccc(F)c2)sc1Cl (centres undefined) + CC(Nc1ncnc2nc[nH]c12)c1cc2cccc(Cl)c2c(=O)n1-c1ccccc1 yielded an IC50 (second compound 0.0316 µM) of over 10 µM, an IC50 (second compound 0.1 µM) of over 10 µM and an IC50 (second compound 0.316 µM) of 3.11 µM. For the same molecule, the IC50 (second compound 1 µM) was 2.71 µM, the IC50 (second compound 3.16 µM) was 1.76 µM and the IC50 (second compound 10 µM) was 0.271 µM. The viability, T/C [1] was 73%, the viability, T/C [2] was 91.4% and the viability, T/C [3] was 65.3%. The viability, T/C [4] was 65.4%, the viability, T/C [5] was 54.6% and the viability, T/C [6] was 51.3%. For the same molecule, the viability, T/C [7] was 92.6%, the viability, T/C [8] was 88.9% and the viability, T/C [9] was 88.1%. For the same molecule, the viability, T/C [10] was 63.2%, the viability, T/C [11] was 56.8% and the viability, T/C [12] was 58.1%. For the same molecule, the viability, T/C [13] was 104%, the viability, T/C [14] was 128% and the viability, T/C [15] was 75%. For the same molecule, the viability, T/C [16] was 78.4%, the viability, T/C [17] was 49.3% and the viability, T/C [18] was 34%. It also gave a viability, T/C [19] of 73.5%, a viability, T/C [20] of 97.8% and a viability, T/C [21] of 73.1%. The viability, T/C [22] was 61.6%, the viability, T/C [23] was 51.3% and the viability, T/C [24] was 36.3%. The viability, T/C [25] was 72.2%, the viability, T/C [26] was 74.1% and the viability, T/C [27] was 61.5%. The viability, T/C [28] was 47.9%, the viability, T/C [29] was 52.5% and the viability, T/C [30] was 33.2%. For the same molecule, the viability, T/C [31] was 73.2%, the viability, T/C [32] was 83.9% and the viability, T/C [33] was 45.5%. It also gave a viability, T/C [34] of 52.7%, a viability, T/C [35] of 39.4% and a viability, T/C [36] of 34.5%.
With Cn1nccc1Nc1nccc(-c2ccn(C(CO)c3ccc(Cl)c(F)c3)c(=O)c2)n1 (centres undefined) + CC(Nc1ncnc2nc[nH]c12)c1cc2cccc(Cl)c2c(=O)n1-c1ccccc1 the IC50 (second compound 0.0316 µM) was 0.767 µM, the IC50 (second compound 0.1 µM) was 1.46 µM and the IC50 (second compound 0.316 µM) was 1.3 µM. For the same molecule, the IC50 (second compound 1 µM) was 1.28 µM, the IC50 (second compound 3.16 µM) was 0.529 µM and the IC50 (second compound 10 µM) was 0.143 µM. It also gave a viability, T/C [1] of 85.2%, a viability, T/C [2] of 79.2% and a viability, T/C [3] of 66.3%. It also gave a viability, T/C [4] of 46.7%, a viability, T/C [5] of 31.1% and a viability, T/C [6] of 38.6%. For the same molecule, the viability, T/C [7] was 99.6%, the viability, T/C [8] was 91.1% and the viability, T/C [9] was 73%. It also gave a viability, T/C [10] of 54.4%, a viability, T/C [11] of 41.4% and a viability, T/C [12] of 33.6%. The viability, T/C [13] was 87.9%, the viability, T/C [14] was 101% and the viability, T/C [15] was 63.2%. It also gave a viability, T/C [16] of 56.2%, a viability, T/C [17] of 41.1% and a viability, T/C [18] of 28.3%. The viability, T/C [19] was 96.2%, the viability, T/C [20] was 81.3% and the viability, T/C [21] was 57.1%. It also gave a viability, T/C [22] of 61%, a viability, T/C [23] of 39.6% and a viability, T/C [24] of 27.9%. For the same molecule, the viability, T/C [25] was 74.1%, the viability, T/C [26] was 77.8% and the viability, T/C [27] was 55.3%. It also gave a viability, T/C [28] of 43.1%, a viability, T/C [29] of 32.4% and a viability, T/C [30] of 33.6%. For the same molecule, the viability, T/C [31] was 63.4%, the viability, T/C [32] was 53.5% and the viability, T/C [33] was 43.8%. For the same molecule, the viability, T/C [34] was 33.6%, the viability, T/C [35] was 32.6% and the viability, T/C [36] was 25.3%.
